≈ marks a conversion by molar mass, not a printed value.
Legend:
[1] = test system: Chromobacterium violaceum; assay: Inhibition of N-acyl-homoserinlactone-related quorum sensing system in Chromobacterium violaceum ATCC 12472 assessed as diameter of violacein pigment inhibition after 48 hrs
Ehrlich [2] = assay: Antitumor activity against mouse EAC cells implanted in Swiss albino mouse assessed as mean survival time at 0.5 mg/mouse administered for 9 days (reference value: 14.5 day); format: functional
Mus musculus [3] = assay: Toxicity in Swiss albino mouse implanted with mouse EAC cells assessed as effect on RBC count at 0.5 mg/mouse administered for 9 days (reference value: 3.69 10^6/mm3); format: organism-based; details: in vivo, 216 h
Mus musculus [4] = assay: Toxicity in Swiss albino mouse implanted with mouse EAC cells assessed as effect on hemoglobin content at 0.5 mg/mouse administered for 9 days (reference value: 8.15 g/dl); format: organism-based; details: in vivo, 216 h
Ehrlich [5] = assay: Antitumor activity against mouse EAC cells implanted in Swiss albino mouse assessed as effect on viable tumor cell count at 0.5 mg/mouse administered for 9 days by trypan blue staining based method (reference value: 83.20 10^6/ml); format: functional
Ehrlich [6] = assay: Antitumor activity against mouse EAC cells implanted in Swiss albino mouse assessed as effect on tumor volume at 0.5 mg/mouse administered for 9 days (reference value: 9.85 mL); format: functional
Mus musculus [7] = assay: Toxicity in Swiss albino mouse implanted with mouse EAC cells assessed as effect on WBC count at 0.5 mg/mouse administered for 9 days (reference value: 23.96 10^3/mm3); format: organism-based; details: in vivo, 216 h
WISH = assay: Cytotoxicity against human WISH cells assessed as decrease in cell viability after 48 hrs by MTT assay; format: cell-based
Ehrlich [8] = assay: Antitumor activity against mouse EAC cells implanted in Swiss albino mouse assessed as increase in life span at 0.5 mg/mouse administered for 9 days relative to control; format: functional
[9] = Displacement of methyl green from DNA (unknown origin) incubated in dark for 24 hrs
Bacillus cereus = assay: Antimicrobial activity against Bacillus cereus UW 85 after 24 hrs by two-fold serial dilution method; format: functional; details: UW 85, 24 h
MCF7 = assay: Cytotoxicity against human MCF7 cells assessed as decrease in cell viability after 48 hrs by MTT assay; format: functional, cell-based; details: MCF7, 48 h
Pseudomonas aeruginosa = assay: Antimicrobial activity against Pseudomonas aeruginosa PAO1 after 24 hrs by two-fold serial dilution method; format: functional; details: PAO1, 24 h
Escherichia coli = assay: Antimicrobial activity against Escherichia coli ATCC 12435 after 24 hrs by two-fold serial dilution method; format: functional; details: ATCC 12435, 24 h
HepG2 = assay: Cytotoxicity against human HepG2 cells assessed as decrease in cell viability after 48 hrs by MTT assay; format: functional, cell-based; details: HepG2, 48 h
WI-38 = assay: Cytotoxicity against human W138 cells assessed as decrease in cell viability after 48 hrs by MTT assay; format: cell-based; details: WI-38, 48 h
HeLa = assay: Cytotoxicity against human HeLa cells assessed as decrease in cell viability after 48 hrs by MTT assay; format: functional, cell-based
Staphylococcus aureus = assay: Antimicrobial activity against Staphylococcus aureus ATCC 29213 after 24 hrs by two-fold serial dilution method; format: functional; details: ATCC 29213, 24 h
Candida albicans = assay: Antimicrobial activity against Candida albicans after 48 hrs by two-fold serial dilution method; format: functional
Aspergillus fumigatus = assay: Antimicrobial activity against Aspergillus fumigatus 293 after 48 hrs by two-fold serial dilution method; format: functional; details: Af293, 48 h
Aspergillus flavus = assay: Antimicrobial activity against Aspergillus flavus 3375 after 48 hrs by two-fold serial dilution method; format: functional; details: Aspergillus flavus, 3375, 48 h

| Structure (SMILES) | inhibition zone (IZ) [1] [mm] | MST (Ehrlich [2]) [days] | Activity (Mus musculus [3]) [×10⁶ /mm3] | Activity (Mus musculus [4]) [g/dL] | Activity (Ehrlich [5]) [×10⁶ /ml] | Activity (Ehrlich [6]) [mL] | Activity (Mus musculus [7]) [×10³ /mm3] | IC50 (WISH) [µM] | ILS (Ehrlich [8]) [%] | IC50 [9] [µM] | MIC (Bacillus cereus) [µM] | IC50 (MCF7) [µM] | MIC (Pseudomonas aeruginosa) [µM] | MIC (Escherichia coli) [µM] | IC50 (HepG2) [µM] | IC50 (HeLa) [µM] | MIC (Staphylococcus aureus) [µM] | MIC (Candida albicans) [µM] | MIC (Aspergillus fumigatus) [µM] | MIC (Aspergillus flavus) [µM] | also measured |
| --- | --- | --- | --- | --- | --- | --- | --- | --- | --- | --- | --- | --- | --- | --- | --- | --- | --- | --- | --- | --- | --- |
| Oc1cc(O)c2c(c1)O[C@H](c1ccc(O)c(O)c1)[C@@H](O)C2 | 2 |  |  |  |  |  |  |  |  |  |  |  |  |  |  |  |  |  |  |  |  |
| COc1cccc2c1C(=O)c1c(O)c3c(c(O)c1C2=O)C[C@@](O)(C(=O)CO)C[C@@H]3O[C@H]1C[C@H](N)[C@H](O)[C@H](C)O1 [DOXORUBICIN] |  | 62 | 5.32 | 12.75 | 16.36 | 1 | 8.96 | 8.14 | 244.4 | 31.3 |  |  |  |  |  |  |  |  |  |  |  |
| Cc1n[nH]c2c1C(c1ccc(N(C)C)cc1)C=C(N)N2 (stereo not given) | < 2 | 31 | 4.53 | 10.95 | 51.17 | 4.8 | 12.69 | 21.6 | 72.2 | 56.4 | 3710 (≈ 1000 µg/mL) | 11.2 | 3710 (≈ 1000 µg/mL) | 7430 (≈ 2000 µg/mL) | 20.6 | 27.4 | 3710 (≈ 1000 µg/mL) | 3710 (≈ 1000 µg/mL) | 3710 (≈ 1000 µg/mL) | 3710 (≈ 1000 µg/mL) | IC50 (WI-38): 18.1 µM |
| CC1(C)S[C@@H]2[C@H](NC(=O)[C@H](N)c3ccccc3)C(=O)N2[C@H]1C(=O)O [AMPICILLIN] |  |  |  |  |  |  |  |  |  |  | 1430 (≈ 500 µg/mL) |  |  | 44.7 (≈ 15.6 µg/mL) |  |  | 716 (≈ 250 µg/mL) |  |  |  |  |
| Cc1n[nH]c2c1C(c1ccc(N(C)C)cc1)C(C(=O)n1ncc(C#N)c1N)=C(N)N2 (stereo not given) | < 2 |  |  |  |  |  |  |  |  |  |  | 62.7 | 620 (≈ 250 µg/mL) |  | 66.3 | 60.2 |  | 4960 (≈ 2000 µg/mL) | 2480 (≈ 1000 µg/mL) | 2480 (≈ 1000 µg/mL) |  |
| Cc1n[nH]c2c1C(c1ccc(N(C)C)cc1)C(C(=O)NNc1cc([N+](=O)[O-])ccc1[N+](=O)[O-])=C(N)N2 (stereo not given) | 2.5 | 42 | 5.24 | 13.1 | 34.73 | 2.8 | 10.32 | 51.2 | 133.3 | 34 | 253 (≈ 125 µg/mL) | 13 | 507 (≈ 250 µg/mL) | 1010 (≈ 500 µg/mL) | 8.68 | 8.52 | 507 (≈ 250 µg/mL) | 1010 (≈ 500 µg/mL) | 1010 (≈ 500 µg/mL) | 1010 (≈ 500 µg/mL) | IC50 (WI-38): 55.4 µM |
| Cc1n[nH]c2c1C(c1ccc(N(C)C)cc1)C(C(=O)N/N=C/c1ccc(Cl)cc1)=C(N)N2 (stereo not given) | < 2 |  |  |  |  |  |  |  |  | 67.8 | 556 (≈ 250 µg/mL) | 25.2 | 556 (≈ 250 µg/mL) | 556 (≈ 250 µg/mL) | 39.5 | 31.7 | 556 (≈ 250 µg/mL) | 1110 (≈ 500 µg/mL) | 2220 (≈ 1000 µg/mL) | 2220 (≈ 1000 µg/mL) |  |
| Cc1n[nH]c2c1C(c1ccc(N(C)C)cc1)C(C(=O)N/N=C1/C(=O)Nc3ccccc31)=C(N)N2 (stereo not given) | < 2 |  |  |  |  |  |  |  |  |  | 2190 (≈ 1000 µg/mL) | 59.1 | 548 (≈ 250 µg/mL) | 4380 (≈ 2000 µg/mL) | 57.9 | 52.9 | 2190 (≈ 1000 µg/mL) | 2190 (≈ 1000 µg/mL) | 2190 (≈ 1000 µg/mL) | 2190 (≈ 1000 µg/mL) |  |
| Cc1n[nH]c2c1C(c1ccc(N(C)C)cc1)C(C(=O)O)=C(N)N2 (stereo not given) | 11 |  |  |  |  |  |  |  |  | 41.7 | 99.7 (≈ 31.3 µg/mL) | 22 | 199 (≈ 62.5 µg/mL) | 199 (≈ 62.5 µg/mL) | 39.7 | 33.6 | 99.7 (≈ 31.3 µg/mL) | 798 (≈ 250 µg/mL) | 399 (≈ 125 µg/mL) | 399 (≈ 125 µg/mL) |  |
| Cc1n[nH]c2c1C(c1ccc(N(C)C)cc1)C(C(=O)NNC(N)=S)=C(N)N2 (stereo not given) | < 2 | 46 | 5.59 | 13.4 | 30.94 | 2.25 | 8.52 | 49 | 155.5 | 36.7 | 647 (≈ 250 µg/mL) | 5.21 | 647 (≈ 250 µg/mL) | 1290 (≈ 500 µg/mL) | 6.32 | 6.26 | 647 (≈ 250 µg/mL) | 1290 (≈ 500 µg/mL) | 1290 (≈ 500 µg/mL) | 1290 (≈ 500 µg/mL) | IC50 (WI-38): 53.5 µM |
| Cc1n[nH]c2c1C(c1ccc(N(C)C)cc1)C(C(=O)NN)=C(N)N2 (stereo not given) | 5 |  |  |  |  |  |  |  |  | 68.2 | 764 (≈ 250 µg/mL) | 42.6 | 764 (≈ 250 µg/mL) | 1530 (≈ 500 µg/mL) | 66.4 | 51.3 | 764 (≈ 250 µg/mL) | 1530 (≈ 500 µg/mL) | 1530 (≈ 500 µg/mL) | 1530 (≈ 500 µg/mL) |  |
| OC(Cn1cncn1)(Cn1cncn1)c1ccc(F)cc1F [FLUCONAZOLE] |  |  |  |  |  |  |  |  |  |  |  |  |  |  |  |  |  | 6530 (≈ 2000 µg/mL) |  |  |  |
| Cc1n[nH]c2c1C(c1ccc(N(C)C)cc1)C(C(N)=O)=C(N)N2 (stereo not given) | < 2 | 61 | 5.94 | 14 | 21.46 | 1.35 | 8.2 | 76.4 | 238.9 | 28 |  | 4.55 | 3200 (≈ 1000 µg/mL) |  | 5.28 | 5.77 |  | 6400 (≈ 2000 µg/mL) | 3200 (≈ 1000 µg/mL) | 6400 (≈ 2000 µg/mL) | IC50 (WI-38): 68.5 µM |

Reference: ChEMBL document CHEMBL4270515, “New pyrazolopyridine analogs: Synthesis, antimicrobial, antiquorum-sensing and antitumor screening” (Eur J Med Chem, 2018)
